Laboratory results taken from patent publication US5284759A, “Biological production of acetal or ketal substituted benzene compounds” (Minnesota Mining and Manufacturing Company, priority 1992, dated 1994).
≈ marks a conversion by molar mass, not a printed value.

What was measured:
[1] = solubility of substrates in MSB buffer; format: physicochemical
From the text: (§1) Two significant parameters of each substrate tested were toxicity and water solubility. The combined effects of those parameters will influence the maximum rate of biotransformation by the microbial culture. Methods were developed to examine the effects of substrate concentration on the rate of biotransformation and cell growth. The rates of biotransformation were apparently independent of the substrates' water solubility. For example, the solubilities of bromobenzene, acetophenone, and 1-phenyl-1,2-ethanediol in MSB buffer (at 30° C.) are approximately 400 mg/liter, 2000 mg/liter, and 5000 mg/liter, respectively. Bromobenzene, one of the least water-soluble substrates tested, was transformed to its dihydrodiol by strain F39/D at an average rate of about 20 mg/liter/hour. […] Substrate toxicity was determined by examining the growth rate of strain F39/D in the presence of the test compounds.

[2] = test system: Pseudomonas putida strain F39/D; experiment: substrate toxicity: growth of strain F39/D in the presence of the test compounds; format: cell-based
From the text: as §1

[3] = test system: Pseudomonas putida strain F39/D; experiment: rate of biotransformation of substrate to its dihydrodiol by strain F39/D; format: cell-based
From the text: as §1
Biotransformation preferably involves the addition of the starting substrate to an induced microbial cell suspension. The microorganisms are then allowed to grow such that the enzyme, arene 2,3-dioxygenase may act on the substrate. The induced microorganisms are prepared as described above. […]

Row | SMILES | solubility in MSB buffer ([1]; msb buffer) [µg/mL] | growth of the microbes ([2]; 1000 mg/l (one-half saturated level)) | solubility in MSB buffer ([1]; MSB buffer, 30° C.) | average rate of transformation to its dihydrodiol [3] | rate of transformation compared with acetophenone or 1-phenylethanediol ([3]; relative to acetophenone or 1-phenylethanediol transformation) | growth of the microbes ([2]; 400 mg/l (saturated level))
1 | OCC(O)c1ccccc1 (stereo not shown) [1-phenyl-1,2-ethanediol] | ~5000 (≈ 36.2 mM) | – | – | – | – | –
2 | CC(=O)c1ccccc1 [acetophenone] | ~2000 (≈ 16.6 mM) | completely inhibited | – | – | – | –
3 | Brc1ccccc1 [bromobenzene] | – | – | approximately 400 mg/liter | about 20 mg/liter/hour | much greater than that of acetophenone or 1-phenylethanediol transformation | apparently unaffected
